Patent US9969695B2, “N-substituted imidazole carboxylic ester chiral compound containing an ether side chain, its preparation and application” (WEST CHINA HOSPITAL, SICHUAN UNIVERSITY, priority 2013, dated 2018)
Read-outs that look alike come from different tables or passages of the source.

Legend:
Male SD rats [1] = experiment: ED50 by the sequential method, extinction of rat body-righting reflex; format: in vivo; conditions: Rattus norvegicus, etomidate as Etomidate-Lipuro, extinction of body-righting reflex ≥30 s, read-out: 50% effective dose (ED50)
Method: (§1) Male SD rats (250˜300 g) were used as an experimental animal, and 50% effective dose (ED50) was determined by the sequential method. Three compounds were dissolved in a solvent of DMSO, and etomidate was used as the commercially-available formulation (B BRAUN, Etomidate-Lipuro®, 20 mg/10 mL). Based on the initial dose of 1 mg/kg, other dosages were adjusted as the ratio of 0.8, and the ED50 values of the three compounds and etomidate were determined. Extinction time ≥30 s for the rat body-righting reflex was the positive marker while no disappearance of the righting reflex was considered invalid. Based on the experimental results, four cross-points were formed, and the ED50 values were calculated. […] Then, the respective 2ED50 values of the three compounds and etomidate were taken in an equivalent dose, which were administered via the rat tail vein. The preliminary effects were evaluated in the four rat groups, which were given the three compounds of Formulas (I), (IV), (V) and etomidate, respectively, with 10 rats in each group. […] The last time of the Formula (I) compound and etomidate was 5-6 min, but the last time of the Formulas (IV) and (V) compounds was 10-20 min. […] DMSO had no pharmacological effects, and no adverse effects were observed. The onset time, the last time, and the adverse effects (types, incidence rates) induced by the three compounds and etomidate are shown in the following table:
(§2) Male SD rats (250˜300 g) were used as an experimental animal, and 50% effective dose (ED50) was determined by the sequential method. Hydrochlorides of the three compounds were dissolved in the solvent of normal saline, and etomidate was used as the commercially-available formulation (B BRAUN, Etomidate-Lipuro®, 20 mg/10 mL). The initial dose was 1 mg/kg, and the ratio of dosage variation was 0.8, which was applied in the determination of ED50 values of Formula (I) hydrochloride, Formula (I) hydrobromide, Formula (I) trifluoroacetate, and etomidate. Extinction time (≥30 s) of the rat body-righting reflex was the positive marker while no disappearance of the reflex was considered invalid. Based on the experimental results, four cross-points were formed, and then ED50 values were calculated. […] Then, the respective 2ED50 values of the three compounds and etomidate were taken in an equivalent dose, which were administered via the rat tail vein. The preliminary effects were evaluated in the four rat groups, which were given the three compounds of Formulas (I) hydrochloride, Formula (I) hydrobromide, Formula (I) trifluoroacetate, and etomidate, respectively, with 10 rats in each group. […] Palinesthesia time was in arrange of 5-10 min. During the test period, no significant difference was found in the types and the incidence rates of adverse effects in each group. DMSO had no pharmacological effects, and no adverse effect was found. The onset time, the last time, and the types and the incidence rates of adverse effects induced by the three salt compounds and etomidate are shown in the following table: […]

Male SD rats [2] = experiment: Onset time, last time, palinesthesia time and adverse effects at 2ED50 via the rat tail vein; format: in vivo; conditions: for Incidence of adverse effect: Muscle tremor / Onset time: 10 rats per group; for Last time: disappearance to recovery of body-righting reflex
Method: as §1, §2

[3] = test system: self-synthesis of adrenocortical hormone; experiment: Increase degree of cortical hormone (cortisol, corticosterone) in blood serum after ACTH stimulation, ELISA; format: in vivo; conditions: Beagle dogs; for Increase degree of corticosterone / Increase degree of cortisol: 2ED50, dexamethasone baseline, 1 h after ACTH
Method: Male Beagle dogs (10±2 kg) were selected as an experimental animal. After administration, the contents of corticosterone and cortisol in the blood serum of the Beagle dogs were determined by the ELISA kit and the enzyme-labelled instrument. The 20 Beagle dogs were divided into five groups, with four dogs in each group. After respective administration of dexamethasone (0.01 mg/kg), the level of adrenal cortex in the dog body was lowered to the baseline, and those levels of corticosterone and cortisol at this time were used as the base value (baseline). […] After 10 min, ACTH (adrenocortical hormone) was given to stimulate and cause an increased level of cortex in the dog body. One hour after administration of ACTH, both corticosterone and cortisol levels in the blood serum of the Beagle dogs were determined, and the ratio of the peak value to the base value of the cortex levels was calculated. This ratio indicated the increase degree of the cortical hormone. A greater degree indicated a less inhibitory effect of the medicine on the cortical hormone. After administration, compounds of Formulas (I), (IV) and (V), DMSO, and the increase degree of the cortical hormone followed by stimulation of ACTH are shown in the following table:
Male Beagle dogs (10±2 kg) were selected as an experimental animal. After administration, the contents of corticosterone and cortisol in the blood serum of the Beagle dogs were determined by the ELISA kit and the enzyme-labelled instrument. The 20 Beagle dogs were divided into five groups, with four dogs in each group. After respective administration of dexamethasone (0.01 mg/kg), the level of adrenal cortex in the dog body was lowered to the baseline, and the levels of corticosterone and cortisol at this time were used as the baseline. Then, the equivalent doses (2ED50) of the compounds of Formula (I) hydrochloride (3.62 mg/kg), hydrobromide (3.86 mg/kg), trifluoroacetate (4.66 mg/kg), the positive control medicine Etomidate-Lipuro® (0.9 mg/kg), and the equal-volume of solvent DMSO were respectively administrated into the dogs of the five groups. After 10 min, ACTH was given to stimulate and cause the cortex levels increase in the dog body. One hour after administration of ACTH, both the cortical hormone levels were determined, and the ratio of the peak value to the baseline of cortex levels was calculated. This ratio indicated the increase degree of the cortical hormone. A greater degree of increase indicated a less inhibitory effect of the medicine on the cortical hormone. After administrations, the three salts of the Formula (I) compound, DMSO, the increase degree of the cortical hormone followed by stimulation of ACTH are shown in the following table: […]

[4] = after one intravenous bolus of etomidate 3 mg/kg, cited from earlier work
11β-hydroxylase = 11β-hydroxylase versus GABAA; cited from earlier work
[5] = Example 9, 2ED50 via tail vein, listed as etomidate
[6] = Example 10, ratio of peak value to base value
[7] = Example 11, ratio of peak value to baseline

CCOC(=O)c1cncn1[C@H](C)c1ccccc1 [Etomidate, reference compound]
ED50 (Male SD rats [1]; Example 8, compounds in DMSO): 1.14 mg/kg
ED50 (Male SD rats [1]; Example 9, salts in normal saline): 1.06 mg/kg
sedative-hypnotic and general anesthetic effects (conclusion in words) (Male SD rats [2]; Example 8): good sedative-hypnotic and general anesthetic effects
Incidence of adverse effect: Muscle tremor (Male SD rats [2]; Example 8, 2ED50 via tail vein): 70%
Onset time (Male SD rats [2]; Example 8, 2ED50 via tail vein): Immediate
Onset time (Male SD rats [2]; Example 8, 2ED50 via tail vein, listed as etomidate): immediate action
Last time (Male SD rats [2]; Example 8, 2ED50 via tail vein): 6.1 ± 1.3 min
Palinesthesia tune (Male SD rats [2]; Example 8, 2ED50 via tail vein, recovery to full recovery of body-righting reflex): 4.5 ± 1.2 min
sedative-hypnotic and general anesthetic effects (conclusion in words) (Male SD rats [2]; Example 9): good sedative-hypnotic and general anesthetic effects
Incidence of adverse effect: Muscle tremor (Male SD rats [2]; Example 9, 2ED50 via tail vein): 60%
Onset time (Male SD rats [2]; Example 9, 2ED50 via tail vein): Immediate
Onset time (Male SD rats [2]; [5]): immediate action
Last time (Male SD rats [2]; Example 9, 2ED50 via tail vein): 5.9 ± 1.5 min
Last time (Male SD rats [2]; [5]): 4 to 8 min
Palinesthesia time (Male SD rats [2]; Example 9, 2ED50 via tail vein, recovery to full recovery of body-righting reflex): 5.1 ± 1.3 min
Increase degree of corticosterone [3, 6]: 2.53 ± 0.65
Increase degree of cortisol [3, 6]: 2.12 ± 0.56
inhibition on cortical hormone (conclusion in words) ([3]; Example 10, after stimulation by ACTH): significantly inhibit the self-synthesis of adrenocortical hormone
cortical hormone increase after stimulation by ACTH (conclusion in words) ([3]; Example 11): significantly suppress the self-synthesis of adrenocortical hormone
Increase degree of corticosterone [3, 7]: 2.80 ± 0.76
Increase degree of cortisol [3, 7]: 2.46 ± 0.87
time for the plasma medicine concentration maintaining [4]: 8 min
time of plasma medicine concentration maintaining above 8 ng/mL [4]: up to 8 h
minimal effective concentration for inhibition of cortical hormone synthesis ([4]; plasma): 8 ng/mL
minimal effective concentration of anesthetic effect ([4]; plasma): 110 ng/mL
ability of binding to 11β-hydroxylase relative to binding to GABAA acceptor (11β-hydroxylase): 100 times
